The subject of data set [1] is mouse embryonic stem cells (mESCs). The data set can be described thus: mESC cell viability by CCK-8 assay and crystal violet dye. It counts as cell-based. Particulars: CCK-8. How it is done: In a 60 mm cell culture dish coated with 0.1% gelatin (Sigma), mouse ES cells were cultured in a medium DMEM (Hyclone), to which 2 mM L-glutamine (Mediatech Inc.), 1% penicillin/streptomycin (Mediatech Inc.), 15% heat-inactivated fetal bovine serum (Hyclone), 20 mM HEPES-pH 7.3 (Cellgro), 0.1 mM MEM non-essential amino acid (Cellgro), 0.1 mM 2-mercaptoethanol (Sigma) and 1000 U/mL LIF (Millipore) are added, in order to prevent differentiation.
Mouse ES cells were seeded by 8×10^4 cells per well in a 96-well plate containing the above various cryopreservation solutions. After 9 hours, CCK-8 reagent was added and fluorescence intensity was measured using an ELISA Reader (TECAN).
[…] Cells were washed with 500 μL of PBS and 500 μL of 4% PFA was added thereto for 15 minutes. The fixed cells were washed twice with 500 μL of PBS and 0.5% crystal violet solution was added thereto for 30 minutes. The stained cells were washed with tap water.
(In general: Tetrazolium dyes change colour on reduction, which living cells bring about.)

Data set [2] is described as follows: Ice recrystallization inhibition (IRI) splat assay, MLGS from DFOM images. Particulars: ice recrystallized 30 minutes at -6 °C. How it is done:
In order to more clearly confirm the effect of inhibiting ice crystal growth, ice recrystallization inhibition (IRI) characteristics were analyzed. Analysis of ice recrystallization was performed by reference Mitchell, D. E., Clarkson, G., Fox, D. J., Vipond, R. A., Scott, P., & Gibson, M. I. (2017). Antifreeze Protein Mimetic Metallohelices with Potent Ice Recrystallization Inhibition Activity. Journal of the American Chemical Society, 139(29), 9835-9838 and Budke, C., Heggemann, C., Koch, M., Sewald, N., & Koop, T. (2009). Ice Recrystallization Kinetics in the Presence of Synthetic Antifreeze Glycoprotein Analogues Using the Framework of LSW Theory. The Journal of Physical Chemistry B, 113(9), 2865-2873. More specifically, a 10 μL sample was dropped from a height of 1.5 m onto a surface of a cover glass precooled to −60° C. so as to form a thin film of ice. […] During recrystallization of ice, dark-field optical microscopy (DFOM) images were taken, and ten of the largest ice crystal domains were chosen and a mean value thereof was obtained to evaluate the IRI activity. A mean largest grain size (MLGS) analysis was repeated three times.

A short description of data set [3]: Gold nanoparticle (MPA-AuNP) colorimetric freeze/thaw assay for TH and IRI activity. The note with it: 50 μL of 0.5 mM sample in 350 μL of 300 μM MPA-AuNP, -65 °C 23 min. The protocol: Thermal hysteresis (TH) as anti-freezing activity was measured in accordance with the method described in Park, J.-I., Lee, J. H., Gwak, Y., Kim, H. J., Jin, E., & Kim, Y.-P. (2013). Frozen assembly of gold nanoparticles for rapid analysis of antifreeze protein activity. Biosensors and Bioelectronics, 41, 752-757, and ice recrystallization inhibition (IRI) activity was measured based on Mitchell, D. E., Congdon, T., Rodger, A., & Gibson, M. I. (2015). Gold Nanoparticle Aggregation as a Probe of Antifreeze (Glyco) Protein-Inspired Ice Recrystallization Inhibition and Identification of New IRI Active Macromolecules. Scientific Reports, 5(1). More specifically, when dispersing AFP in a solution in which gold nanoparticles are dispersed, and freezing the solution then thawing again, if the AFP has good conjugating force with an ice crystal surface, the dispersibility of gold nanoparticles is good to maintain an original color of the solution, whereas if it has weak conjugating force, AFP is precipitated, and when ice crystals are rapidly formed, the solution is subjected to color change.
Gold nanoparticles (Cit-AuNP) stabilized with citric acid were synthesized to prepare mercaptopropionic acid (MPA)-AuNP. 20 mL of a storage solution containing 1 mM HAuCl4·3H2O was added to 50 mL of deionized water (DI water). After the solution was stirred and heated to a boiling point, 30 mM sodium citric acid in 2 mL of deionized water was further added to the solution and heated for 20 minutes. The color of the solution changed from bright yellow to burgundy. […] An average size of MPA-capped AuNP was measured to be about 16.7 nm.
On a microwell plate, 50 μL of a solution containing 0.5 mM sample was added to 350 μL of 300 μM MPA-AuNP solution, respectively. […] To quantitatively confirm the color change before and after freezing, absorption spectra of each mixture were measured with a UH5300 spectrometer before and after freezing. The spectra were measured from 300 nm to 900 nm at a scan speed of 400 nm/min, and aggregation properties (E525/E650) of each mixture were compared. […]

Data set [4] relates to sperms. As to the kind of experiment: Sperm cryopreservation followed by in vitro fertilization and embryo culture. It counts as cell-based, C57BL/6J mice. The note with it: sperms frozen in 3% skim milk containing 10 to 20 μM. How it is done:
To cryopreserve sperms, a modified 18% raffinose pentahydrate/3% skim milk (Difco, Becton Dickinson) solution containing 100 mM L-glutamine or skim milk, to which a cryoprotectant according to the present invention was added, was prepared. A human tubal fluid (HTF) medium was used during the IVF process, and a potassium simplex optimized medium (PSOM) was used while 2-cell embryo was cultured to a blastocyst stage.
A sperm cryopreservation solution dispensed in 60 μL was placed in a 35 mm culture dish and covered with paraffin oil. After male mice were sacrificed with […], a tail of epididymis was removed and divided into pieces, and all fats and blood were removed while observing under a microscope before transferring to the cryopreservation solution. The culture dish was kept at 37° C. for 3 minutes and gently stirred every minute to allow sperms to disperse from the tissues. […]
Frozen sperms were thawed under various conditions, then added to IVF drops containing eggs and incubated at 37° C. […] After 24 hours from fertilization, a fertilization rate was calculated using the total number of 2-cell embryos as a percentage based on the total number of eggs.
After performing IFV, 2-cell embryos were classified into a group to be cultured in the blastocyst stage and a group to be implanted in the oviduct of ICR females. After giving birth, the number of pups was recorded. […]

Each structure is given as a SMILES string.

For `CC(O)C(NC(=O)C(CC1=c2ccccc2=NC1)NC(=O)C(CC1=CN=C2C=CC=CC12)NC(=O)OCC1c2ccccc2-c2ccccc21)C(N)=O` (stereo not shown) [Fmoc-WWT], the “cell viability with respect to mESC” value in data set [1] was “significant cell viability”. Besides, the IRI effect result in data set [2] is given as “had IRI effects”. For the same compound, the “aggregation of gold particles after freezing/thawing (absorption peak shift 525 nm to 650 nm)” value in data set [3] is recorded as “an aggregation phenomenon was exhibited”. Besides, the “rate of 2-cell embryo formation” value in data set [4] is ≥ 77%.
